{"source": "ChEMBL document CHEMBL1201862", "about": "“PubChem BioAssay data set” (2004)", "key": {"[1]": {"target": "T1, Mannose-6-phosphate isomerase (Homo sapiens, UniProt P34949)", "T1 sequence (P34949 whole entry)": "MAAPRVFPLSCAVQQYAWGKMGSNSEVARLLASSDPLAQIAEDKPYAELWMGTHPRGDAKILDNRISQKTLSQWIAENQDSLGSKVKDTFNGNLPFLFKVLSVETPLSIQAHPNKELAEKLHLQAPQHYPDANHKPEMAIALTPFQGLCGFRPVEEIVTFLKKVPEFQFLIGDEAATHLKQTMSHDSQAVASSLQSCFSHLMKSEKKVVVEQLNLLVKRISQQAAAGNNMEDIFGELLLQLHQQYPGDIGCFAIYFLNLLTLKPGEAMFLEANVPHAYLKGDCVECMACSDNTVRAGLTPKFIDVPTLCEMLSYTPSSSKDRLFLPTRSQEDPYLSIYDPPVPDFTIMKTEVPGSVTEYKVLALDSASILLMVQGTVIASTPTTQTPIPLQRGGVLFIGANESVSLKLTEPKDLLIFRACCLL", "test": "MPI enzyme activity inhibition – biochemical, fluorescence intensity, coupled assay, primary screen (AID 1209)"}, "[2]": {"test": "viability loss in THP-1 monocytes – THP-1 cells, cytotoxicity control for Vif-APOBEC3G degradation inhibitor project, dose response (AID 1117359)", "assay_type": "functional", "conditions": "THP-1"}, "[3]": {"target": "T1, Mannose-6-phosphate isomerase", "test": "MPI inhibition at elevated mannose 6-phosphate – biochemical, fluorescence intensity, high mannose 6-phosphate, primary screen (AID 1220)"}, "[4]": {"test": "Trypanosoma cruzi growth suppression in host cells – NIH3T3 host cells, beta-gal luminescence, confirmation (AID 2044);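 also: intracellular parasites grown in NIH/3T3 mouse fibroblasts as host cells; luminescent beta-galactosidase reporter signal from transgenic T. cruzi replicating inside host cells; inhibitors lower the luminescence signal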", "assay_type": "functional, cell-based"}, "[5]": {"target": "Sphingosine 1-phosphate receptor 2 (Homo sapiens, UniProt O95136)", "sequence (O95136 whole entry)": "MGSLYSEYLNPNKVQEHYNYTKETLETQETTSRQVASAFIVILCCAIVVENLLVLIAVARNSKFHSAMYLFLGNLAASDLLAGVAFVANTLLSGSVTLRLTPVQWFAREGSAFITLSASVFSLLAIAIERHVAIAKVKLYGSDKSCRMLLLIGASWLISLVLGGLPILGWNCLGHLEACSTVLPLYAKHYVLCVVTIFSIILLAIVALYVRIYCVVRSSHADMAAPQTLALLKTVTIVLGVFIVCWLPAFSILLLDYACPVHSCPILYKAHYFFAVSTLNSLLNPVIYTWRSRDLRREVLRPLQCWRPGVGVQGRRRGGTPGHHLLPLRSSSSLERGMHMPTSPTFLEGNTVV", "test": "Dose Response Cell Based Assay for Antagonists of the S1P2 Receptor. [Related pubchem assays: 856, 736 ]", "assay_type": "functional"}, "[6]": {"test": "NIH3T3 cell viability loss – ATP luminescence, mouse fibroblasts, counter-screen, dose response (AID 2010);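 also: cells exposed to compound for about 90 hours before reading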", "assay_type": "functional, cell-based"}, "Streptococcus": {"system": "Streptococcus", "test": "GAS UMAA2166 growth inhibition – luminescence, BacTiterGlo, counter-screen for streptokinase expression inhibitor project, dose response (AID 1915);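 also: potency for reduction of bacterial viability or growth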", "assay_type": "functional, organism-based"}, "[7]": {"system": "Streptococcus sp. 'group A'", "test": "Streptococcus pyogenes SK(-)GAS viability under kanamycin – luminescence, BacTiterGlo, confirmation, counter-screen for streptokinase expression inhibitor project, dose response (AID 1900)", "assay_type": "functional, organism-based"}, "[8]": {"test": "Luminescence Cell-Based Dose Response to Identify Activators of 5'UTR Stem-Loop Driven Prion Protein mRNA Translation in H4-C Neuroglioblastoma Cells. [Related pubchem assays: 1829 (Project Summary), 1814 (Primary HTS)]", "assay_type": "functional"}, "[9]": {"test": "Luminescence Cell-Based Dose Response to Identify Activators of Luciferase Translation or Activity in H4-C Neuroglioblastoma Cells. [Related pubchem assays: 1829 (Project Summary), 1814 (Primary HTS)]", "assay_type": "functional"}, "[10]": {"test": "Luminescence Cell-Based Dose Response HTS to Identify Activators of Luciferase Translation or Activity in H4 […] Cells. [Related pubchem assays: 1829 (Project Summary), 1814 (Primary HTS)]", "assay_type": "functional"}, "[11]": {"test": "Luminescence Cell-Based Dose Confirmation to Identify Activators of 5'UTR Stem-Loop Driven Alpha-Synuclein mRNA Translation in H4 Neuroglioblastoma Cells. [Related pubchem assays: 1829 (Project Summary), 1814 (Primary HTS)]", "assay_type": "functional"}, "H4": {"system": "H4", "test": "Luminescence Cell-Based Dose Response HTS to Identify Activators of 5'UTR Stem-Loop Driven Prion Protein mRNA Translation in H4 Neuroglioblastoma Cells. [Related pubchem assays: 1829 (Project Summary), 1814 (Primary HTS)]", "assay_type": "functional", "conditions": "Homo sapiens"}, "[12]": {"target": "T2, Apoptotic protease-activating factor 1 (Homo sapiens, UniProt O14727)", "T2 sequence (O14727 whole entry)": "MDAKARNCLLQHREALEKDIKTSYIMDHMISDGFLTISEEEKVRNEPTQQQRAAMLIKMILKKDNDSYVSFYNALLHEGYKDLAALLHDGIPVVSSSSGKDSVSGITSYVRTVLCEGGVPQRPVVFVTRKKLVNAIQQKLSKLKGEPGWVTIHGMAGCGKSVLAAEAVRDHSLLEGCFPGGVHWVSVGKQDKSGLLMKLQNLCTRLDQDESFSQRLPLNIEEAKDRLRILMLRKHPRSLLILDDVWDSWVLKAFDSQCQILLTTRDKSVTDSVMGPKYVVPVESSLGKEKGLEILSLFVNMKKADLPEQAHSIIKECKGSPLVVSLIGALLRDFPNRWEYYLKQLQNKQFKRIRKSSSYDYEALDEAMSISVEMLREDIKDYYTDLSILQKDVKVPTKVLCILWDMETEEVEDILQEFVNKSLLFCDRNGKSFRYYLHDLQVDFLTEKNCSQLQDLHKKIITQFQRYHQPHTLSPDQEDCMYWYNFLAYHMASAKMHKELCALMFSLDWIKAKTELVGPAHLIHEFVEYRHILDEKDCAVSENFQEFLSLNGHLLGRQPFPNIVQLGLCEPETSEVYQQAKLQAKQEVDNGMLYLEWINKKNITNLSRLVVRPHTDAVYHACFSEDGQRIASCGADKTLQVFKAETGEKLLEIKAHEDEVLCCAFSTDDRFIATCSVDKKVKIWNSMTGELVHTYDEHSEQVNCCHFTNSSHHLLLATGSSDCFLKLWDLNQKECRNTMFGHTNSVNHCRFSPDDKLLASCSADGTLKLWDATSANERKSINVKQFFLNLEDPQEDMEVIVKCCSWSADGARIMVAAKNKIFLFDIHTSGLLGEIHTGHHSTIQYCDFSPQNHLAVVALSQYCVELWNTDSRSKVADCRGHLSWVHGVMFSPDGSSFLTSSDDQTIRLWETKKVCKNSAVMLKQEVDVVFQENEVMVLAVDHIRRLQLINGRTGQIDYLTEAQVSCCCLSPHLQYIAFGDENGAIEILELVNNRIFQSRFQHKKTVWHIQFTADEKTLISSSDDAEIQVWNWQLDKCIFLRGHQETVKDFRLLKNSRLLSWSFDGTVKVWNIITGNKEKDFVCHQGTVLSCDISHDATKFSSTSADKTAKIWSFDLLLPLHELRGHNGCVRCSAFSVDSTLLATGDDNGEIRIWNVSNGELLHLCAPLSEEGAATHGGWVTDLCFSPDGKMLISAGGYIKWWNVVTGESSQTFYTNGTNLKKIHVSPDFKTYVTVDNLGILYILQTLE", "assay_type": "functional"}, "[13]": {"target": "T3, Aryl hydrocarbon receptor (Homo sapiens, UniProt P35869)", "T3 sequence (P35869 whole entry)": "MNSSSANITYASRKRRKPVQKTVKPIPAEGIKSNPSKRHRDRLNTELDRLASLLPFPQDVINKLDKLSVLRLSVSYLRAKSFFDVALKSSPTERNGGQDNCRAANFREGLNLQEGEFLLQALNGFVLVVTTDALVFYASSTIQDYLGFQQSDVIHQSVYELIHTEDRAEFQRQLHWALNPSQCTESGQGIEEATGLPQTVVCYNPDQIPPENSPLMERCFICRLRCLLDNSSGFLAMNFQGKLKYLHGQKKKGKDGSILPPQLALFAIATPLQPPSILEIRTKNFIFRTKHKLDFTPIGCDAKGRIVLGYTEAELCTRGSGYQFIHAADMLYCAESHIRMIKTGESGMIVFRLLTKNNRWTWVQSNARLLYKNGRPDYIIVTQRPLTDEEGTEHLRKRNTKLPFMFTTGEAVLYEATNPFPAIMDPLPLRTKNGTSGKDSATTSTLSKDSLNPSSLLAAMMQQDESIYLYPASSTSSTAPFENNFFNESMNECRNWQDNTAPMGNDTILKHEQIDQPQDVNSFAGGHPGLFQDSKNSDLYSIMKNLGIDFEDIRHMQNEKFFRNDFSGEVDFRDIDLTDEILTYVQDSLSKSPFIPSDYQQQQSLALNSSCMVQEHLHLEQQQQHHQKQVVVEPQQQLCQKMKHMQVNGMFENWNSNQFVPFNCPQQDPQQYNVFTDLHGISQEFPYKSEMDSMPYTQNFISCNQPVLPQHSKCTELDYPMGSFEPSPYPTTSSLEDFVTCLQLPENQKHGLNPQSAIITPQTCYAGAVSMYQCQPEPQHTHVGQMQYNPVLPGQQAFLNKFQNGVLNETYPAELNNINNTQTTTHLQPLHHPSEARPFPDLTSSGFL", "test": "Luminescence-based cell-based high throughput dose response assay for activators of the Aryl Hydrocarbon Receptor (AHR). [Related pubchem assays: 2796 (Primary screen (AHR activators in singlicate)), 2845 (Confirmation screen (AHR activators in triplicate)), 434939 (Counterscreen (PXR activators in triplicate)), 2804 (Summary (AHR activators))]", "assay_type": "ADME"}, "[14]": {"target": "E3 ubiquitin-protein ligase Mdm2 (Homo sapiens, UniProt Q00987)", "sequence (Q00987 whole entry)": "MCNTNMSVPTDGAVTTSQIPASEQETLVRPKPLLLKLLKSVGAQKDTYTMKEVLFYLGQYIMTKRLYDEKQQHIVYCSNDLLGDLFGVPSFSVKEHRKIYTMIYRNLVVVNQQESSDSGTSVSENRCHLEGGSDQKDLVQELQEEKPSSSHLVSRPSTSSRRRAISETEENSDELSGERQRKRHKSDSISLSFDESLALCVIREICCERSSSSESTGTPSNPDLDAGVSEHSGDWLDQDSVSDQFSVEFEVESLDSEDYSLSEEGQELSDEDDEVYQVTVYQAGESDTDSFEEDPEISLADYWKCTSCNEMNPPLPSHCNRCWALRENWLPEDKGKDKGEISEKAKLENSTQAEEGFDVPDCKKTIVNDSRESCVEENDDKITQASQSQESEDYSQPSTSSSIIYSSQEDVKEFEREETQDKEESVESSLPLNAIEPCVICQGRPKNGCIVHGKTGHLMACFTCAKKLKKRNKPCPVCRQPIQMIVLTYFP", "test": "MDM2-luc reporter signal enhancers, multi-concentration potency testing, MDM2 ubiquitin-protein ligase inhibitor program, whole-cell format, luminescence detection, 384-well microplate (AID 1394);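 also: MDM2 E3 inhibitors raise luminescence so EC50 is for signal enhancement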", "assay_type": "functional"}, "[15]": {"target": "Voltage-gated inwardly rectifying potassium channel KCNH2 (Homo sapiens, UniProt Q12809)", "sequence (Q12809 whole entry)": "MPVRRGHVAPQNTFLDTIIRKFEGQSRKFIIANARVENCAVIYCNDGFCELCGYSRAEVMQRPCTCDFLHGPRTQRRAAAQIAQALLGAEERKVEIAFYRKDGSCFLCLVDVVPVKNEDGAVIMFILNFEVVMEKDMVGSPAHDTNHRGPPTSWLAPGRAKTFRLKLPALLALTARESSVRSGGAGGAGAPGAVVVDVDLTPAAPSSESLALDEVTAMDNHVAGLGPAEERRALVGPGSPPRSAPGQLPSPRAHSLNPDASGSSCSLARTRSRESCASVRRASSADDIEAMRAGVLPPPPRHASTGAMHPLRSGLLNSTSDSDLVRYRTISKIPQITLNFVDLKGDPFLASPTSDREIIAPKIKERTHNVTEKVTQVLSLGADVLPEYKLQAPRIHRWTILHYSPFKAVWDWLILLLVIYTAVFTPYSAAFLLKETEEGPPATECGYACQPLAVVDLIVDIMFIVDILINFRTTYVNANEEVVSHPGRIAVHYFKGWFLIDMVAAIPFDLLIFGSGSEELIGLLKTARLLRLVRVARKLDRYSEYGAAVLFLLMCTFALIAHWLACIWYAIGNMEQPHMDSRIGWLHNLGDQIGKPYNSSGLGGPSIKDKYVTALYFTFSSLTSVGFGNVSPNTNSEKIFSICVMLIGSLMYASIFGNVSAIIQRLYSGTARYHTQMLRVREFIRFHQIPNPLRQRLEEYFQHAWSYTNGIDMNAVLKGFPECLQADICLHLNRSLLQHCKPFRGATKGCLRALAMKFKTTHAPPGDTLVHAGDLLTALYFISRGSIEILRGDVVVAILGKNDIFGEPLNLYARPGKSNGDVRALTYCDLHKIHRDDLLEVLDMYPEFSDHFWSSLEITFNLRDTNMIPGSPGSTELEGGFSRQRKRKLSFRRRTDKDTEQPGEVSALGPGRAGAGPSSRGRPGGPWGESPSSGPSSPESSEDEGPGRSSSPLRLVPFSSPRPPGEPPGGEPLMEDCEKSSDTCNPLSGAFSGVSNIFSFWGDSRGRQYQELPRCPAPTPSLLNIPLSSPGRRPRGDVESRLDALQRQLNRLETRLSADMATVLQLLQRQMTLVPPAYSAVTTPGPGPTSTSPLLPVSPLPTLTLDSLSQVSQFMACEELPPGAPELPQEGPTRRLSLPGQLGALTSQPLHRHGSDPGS", "test": "concentration-dependent hERG rescue from blockers – cell-based, thallium flux, dose response (AID 2121)", "assay_type": "ADME"}}, "note": "The source made the active and inactive calls.", "data": [{"smiles": "CC(C)NC[C@@H](O)c1ccc(O)c(O)c1", "values": [{"measurement": "IC50", "setting": "[1]", "result": "> 50 µM (not active)"}, {"measurement": "CC50", "setting": "[2]", "result": "> 40 µM (active)"}, {"measurement": "IC50", "setting": "[3]", "result": "> 50 µM (not active)"}]}, {"smiles": "Cn1c(-c2c(N)n(C3CCCC3)c3nc4ccccc4nc23)nc2ccccc21", "values": [{"measurement": "EC50", "setting": "[4]", "result": "0.905 µM (active)"}, {"measurement": "IC50", "setting": "[5]", "result": "5.09 µM (active)"}, {"measurement": "EC50", "setting": "[6]", "result": "> 30 µM (not active)"}, {"measurement": "EC50", "setting": "Streptococcus", "result": "2.96 µM (active)"}, {"measurement": "EC50", "setting": "[7]", "result": "0.391 µM (active)"}]}, {"smiles": "Cc1cc(NC(=O)c2noc3c2CCCCC3)no1", "values": [{"measurement": "EC50", "setting": "[8]", "result": "2.21 µM (active)"}, {"measurement": "EC50", "setting": "[9]", "result": "0.648 µM (active)"}, {"measurement": "EC50", "setting": "[10]", "result": "< 0.1 µM (inconclusive)"}, {"measurement": "EC50", "setting": "[11]", "result": "5.07 µM (active)"}, {"measurement": "EC50", "setting": "H4", "result": "32.2 µM (active)"}]}, {"smiles": "CCN1C(=O)c2cccc3c(N)ccc1c23", "values": [{"measurement": "IC50", "setting": "[12]", "result": "44 µM (active)"}, {"measurement": "IC50", "setting": "[3]", "result": "> 50 µM (not active)"}]}, {"smiles": "CCC(=O)NC(=S)Nc1ccc(NC(=O)c2ccco2)c(Cl)c1", "values": [{"measurement": "EC50", "setting": "[13]", "result": "4.47 µM (active)"}]}, {"smiles": "Cc1nc(SCc2ccc(F)cc2)c([N+](=O)[O-])[nH]1", "values": [{"measurement": "EC50", "setting": "[14]", "result": "7.19 µM (not active)"}]}, {"smiles": "FC(F)(F)c1cnc2c(-c3cccs3)c(-c3nc[nH]n3)sc2c1", "values": [{"measurement": "IC50", "setting": "[5]", "result": "13.9 µM (not active)"}]}, {"smiles": "O=C(NC(=S)Nc1cc(C(F)(F)F)ccc1Cl)c1ccccc1", "values": [{"measurement": "EC50", "setting": "[15]", "result": "0.24 µM (active)"}]}, {"smiles": "C/C(=N/Nc1ccc(F)cc1)c1ccc(Cl)s1", "values": [{"measurement": "EC50", "setting": "[13]", "result": "4.71 µM (active)"}]}]}
